In US7465720B2, “Proteasome inhibiting β-lactam compounds” (President and Fellows of Harvard College, priority 2005, dated 2008):
Read-outs that look alike come from different tables or passages of the source. Values belong to the compound of their own block, whether it stands above or below them. Where a SMILES comes first, the peptide text is derived from it. The star is where a group is joined. Cbz = O=C(OCc1ccccc1)*

Tests used:
20S proteasome = target: T1, 20S proteasome (Homo sapiens, UniProt P28074); experiment: Inactivation of 20S proteasome, hydrolysis of Suc-Leu-Leu-Val-Tyr-AMC followed by fluorescence; format: biochemical; conditions: for kinact/KI: read-out: kobs/[3]
T1 construct: purchased Boston Biochem
Method: Determination of the inhibitory activity of Compound 3 against the 20S proteasome (see reference 12) was carried out by a modification of the method reported by Dick et al. See reference 11. […] See reference 12. The progress of proteasome inactivation was determined by addition of Suc-LLVY-AMC to a 2 mL aliquot of the incubation experiment and monitoring the rate of production of free AMC by fluorescence spectrophotometry.
A plot of .ln(fluorescence/time) vs. time provided a linear decay whose slope is kobs for proteasome inactivation (FIG. 2). The rate of proteasome inactivation was proportional to the amount of Compound 3 present in the incubation experiments. The 10 μM and 30 μM time course experiments gave values for kobs/[3] as 7 M-1s-1 and 6.7 M-1s-1 respectively. In order to monitor background inactivation of 20S proteasome (see reference 13), each of these of experiments was run side by side with a control experiment identical in all respects except for the exclusion of Compound 3.
Inactivation of 20S proteasome by Compound 3. To separate 50 mL vials containing 12 mL of pH 7.9 buffer (20 mM hepes, 0.5 mM EDTA) was added 60 μL of a stock solution of 20S proteasome (20 mM Hepes, 0.5 mM EDTA, pH 7.9, 100 μg/mL) and aqueous sodium dodecylsulfate (10% w/v, 30 μL). The initial rate of hydrolysis of Suc-Leu-Leu-Val-TyrAMC was determined by addition of a solution of Suc-Leu-Leu-Val-Tyr-AMC (10 mM in DMSO, 10 μL) to a 2 mL aliquot of each of the above solutions. The initial rate of free AMC production was monitored at 37° C. by fluorescence spectrophotometry as described by Dick et al.* To one of the stock solutions was added a solution of the β-lactam 3 (10 mM in DMSO, 12 μL). Both solutions were incubated side by side at 37° C. Aliquots were removed at time points as assayed as above. The data for both the 10 μM experiment and an identical experiment utilizing 30 μM using a 30 mM stock solution of 3 are tabulated below. * See, McCormack, T.; Baumeister, W.; Grenier, L.; Moomaw, C.; Plamondon, L.; Pramanik, B.; Slaughter, C.; Soucy, F.; Stein, R.; Zuhl, F.; Dick, L., J. Biol. Chem. 1996, 272, 26103-26109.

[1] = Stability of Compound 3 in solution at pH 7; format: physicochemical
Source text: Oxidative cleavage of the (S)(−)-(4-methoxyphenyl)-ethylamide protecting group in Compound 14 cleanly afforded the β-lactam, Compound 3, in 89% yield.

PC12 cells = conditions: cited from earlier work
[2] = Part 2, 30 μM of Compound 3, time 0 mm
[3] = Part 2, 30 μM of Compound 3, time 47 mm
[4] = Part 2, 30 μM of Compound 3, time 101 mm
[5] = Part 2, 30 μM of Compound 3, time 177 mm

- remaining activity at 10 µM (20S proteasome; 10 μM 3, after 9.5 h, read-out: initial proteasome activity remaining): < 10%
- % Initial Velocity (20S proteasome; 10 μM Compound 3, time 0 h): 100%
- Experiment with 10 μM 3 (units F/s) (20S proteasome; 10 μM Compound 3, time 0 h): 0.59 units F/s
- % Initial Velocity (20S proteasome; 10 μM Compound 3, time 1.5 h): 57%
- Experiment with 10 μM 3 (units F/s) (20S proteasome; 10 μM Compound 3, time 1.5 h): 0.337 units F/s
- % Initial Velocity (20S proteasome; 10 μM Compound 3, time 2.5 h): 45%
- Experiment with 10 μM 3 (units F/s) (20S proteasome; 10 μM Compound 3, time 2.5 h): 0.267 units F/s
- % Initial Velocity (20S proteasome; 10 μM Compound 3, time 4.5 h): 26%
- Experiment with 10 μM 3 (units F/s) (20S proteasome; 10 μM Compound 3, time 4.5 h): 0.156 units F/s
- % Initial Velocity (20S proteasome; 10 μM Compound 3, time 6.5 h): 15%
- Experiment with 10 μM 3 (units F/s) (20S proteasome; 10 μM Compound 3, time 6.5 h): 0.09 units F/s
- % Initial Velocity (20S proteasome; 10 μM Compound 3, time 9.5 h): 7.4%
- Experiment with 10 μM 3 (units F/s) (20S proteasome; 10 μM Compound 3, time 9.5 h): 0.044 units F/s
- remaining activity at 30 µM (20S proteasome; 30 μM 3, after 3 h, read-out: initial proteasome activity remaining): < 10%
- % Initial Velocity (20S proteasome; [2]): 100%
- Experiment with 10 μM 3 (units F/s) (20S proteasome; [2]): 0.526 units F/s
- % Initial Velocity (20S proteasome; [3]): 44%
- Experiment with 10 μM 3 (units F/s) (20S proteasome; [3]): .233 units F/s
- % Initial Velocity (20S proteasome; [4]): 17%
- Experiment with 10 μM 3 (units F/s) (20S proteasome; [4]): 0.090 units F/s
- % Initial Velocity (20S proteasome; [5]): 7%
- Experiment with 10 μM 3 (units F/s) (20S proteasome; [5]): 0.039 units F/s
- kinact/KI (20S proteasome; pH 7.9, 10 μM time course): 7 M⁻¹ s⁻¹
- kinact/KI (20S proteasome; pH 7.9, 30 μM time course): 6.7 M⁻¹ s⁻¹
- melting point: 205 to 207 °C
- stability compared with the corresponding β-lactone and Compounds 1 and 2 ([1]; found to date): much more stable
- stability at pH 7 ([1]; pH 7, 23° C., 24 h): completely stable
Structure (SMILES): CC(C)[C@H](O)[C@@]12NC(=O)[C@H](CCCl)[C@@H]1NC2=O [Compound 3]

Structure (SMILES): CC(C)C[C@@H](C=O)NC(=O)[C@H](CC(C)C)NC(=O)[C@H](CC(C)C)NC(=O)OCc1ccccc1 [benzyloxycarbonyl (Z)-Leu-Leu-leucinal] (Cbz-Leu-Leu-Leu-aldehyde)
- optimal concentration for inducing neurite outgrowth (PC12 cells): 30 nM
